The values below come from article PMC6868653 (Pharmacology Research & Perspectives, 2019).

The target of one test is T1, Mouse GPR132 (Mus musculus, UniProt Q9Z282).
T1 sequence (Q9Z282 1-382): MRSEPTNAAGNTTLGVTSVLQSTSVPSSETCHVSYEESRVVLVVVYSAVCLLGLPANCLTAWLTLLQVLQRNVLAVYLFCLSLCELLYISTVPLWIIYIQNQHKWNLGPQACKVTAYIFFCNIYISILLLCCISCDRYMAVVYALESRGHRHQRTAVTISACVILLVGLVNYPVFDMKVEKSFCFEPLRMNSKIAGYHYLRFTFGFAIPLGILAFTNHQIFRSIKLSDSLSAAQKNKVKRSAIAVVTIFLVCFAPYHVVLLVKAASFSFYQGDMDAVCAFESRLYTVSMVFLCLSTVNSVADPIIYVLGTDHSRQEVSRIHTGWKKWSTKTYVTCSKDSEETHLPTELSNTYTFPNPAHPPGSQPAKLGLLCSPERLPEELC
In words: β‐arrestin association. As to conditions: for pEC50, Mouse GPR132, β‐arrestin: mean ± SD; for Emax, Mouse GPR132, β‐arrestin: normalized to the effect of SB‐583831. It counts as cell-based.

Test [1] concerns the target T2, hGPR132a (Homo sapiens, UniProt Q9UNW8).
T2 sequence (Q9UNW8 1-380): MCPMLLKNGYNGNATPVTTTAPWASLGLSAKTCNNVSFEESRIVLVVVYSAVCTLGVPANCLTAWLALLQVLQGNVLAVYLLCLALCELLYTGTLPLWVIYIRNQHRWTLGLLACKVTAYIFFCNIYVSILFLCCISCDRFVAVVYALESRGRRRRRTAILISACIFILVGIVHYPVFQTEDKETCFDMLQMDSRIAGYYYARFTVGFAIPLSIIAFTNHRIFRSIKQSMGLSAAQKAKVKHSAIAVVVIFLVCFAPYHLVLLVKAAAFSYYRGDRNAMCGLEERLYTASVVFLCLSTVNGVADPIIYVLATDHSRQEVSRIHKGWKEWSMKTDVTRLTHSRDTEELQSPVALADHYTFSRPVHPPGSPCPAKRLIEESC
In words: β‐arrestin association. As to conditions: for pEC50, Human GPR132a, β‐arrestin: mean ± SD; for Emax, Human GPR132a, β‐arrestin: normalized to the effect of SB‐583831. It counts as cell-based.

Test [2] has as its target T2, hGPR132a. The class given is cell-based. As to conditions: for pEC50, Human GPR132a, Yeast: mean ± SD, IA = inactive, bound = top concentration tested; for Emax, Human GPR132a, Yeast: normalized to the effect of NPGly.
Test [3] concerns the target T2, hGPR132a. In words: Yeast assay hGPR132a, antagonist mode / Schild analysis. The class given is cell-based. As to conditions: agonist SB‐583831.
The target of a further test is T3, hGPR132a R203A (Homo sapiens, UniProt Q9UNW8, R203A).
T3 sequence (Q9UNW8 1-380 R203A): T2 sequence (Q9UNW8 1-380) with R203A
In words: Yeast assay, hGPR132a mutant R203A. As to conditions: mean ± SD.

For another test, the target named is Rat GPR132 (Rattus norvegicus, UniProt A0A8I6A964). Description: Yeast pheromone-response pathway reporter assay, yeast expressing rGPR132. It counts as cell-based. As to conditions: for pEC50, Rat GPR132, Yeast: mean ± SD; for Emax, Rat GPR132, Yeast: normalized to the effect of 9‐HODE. (In general: In a reporter assay the amount or activity of a reporter protein is the signal.)

For another test, the system named is CB2. As to conditions: tested up to 10 µmol/L; cited from earlier work.
A further test addresses human CB2 (Homo sapiens, UniProt P34972). Description: Yeast assay, specificity receptor human CB2. The class given is cell-based.
For a further test, the target named is T4, hGPR132a Y200A (Homo sapiens, UniProt Q9UNW8, Y200A).
T4 sequence (Q9UNW8 1-380 Y200A): T2 sequence (Q9UNW8 1-380) with Y200A
Description: Yeast assay, hGPR132a mutant Y200A. As to conditions: mean ± SD.

For the next test, the system named is parental RBL cells. In words: Ca2+ microfluorimetry in parental RBL cells. The class given is cell-based, rat. As to conditions: 10 µmol/L ligand, mean ± SE.
Test [4] concerns the target T2, hGPR132a. Description: Ca2+ microfluorimetry in RBL‐hGPR132a cells. As to conditions: 10 µmol/L ligand, mean ± SE. It counts as cell-based.

Structures are written as SMILES. Numbering of substitutions follows the chain as printed. Where “and” joins values, the source holds several entries; their conditions need not be identical. Equal entries are not always repeated. Where two headings read alike, the source gives them in different places.

Sequence of Rat GPR132 (A0A8I6A964 1-384): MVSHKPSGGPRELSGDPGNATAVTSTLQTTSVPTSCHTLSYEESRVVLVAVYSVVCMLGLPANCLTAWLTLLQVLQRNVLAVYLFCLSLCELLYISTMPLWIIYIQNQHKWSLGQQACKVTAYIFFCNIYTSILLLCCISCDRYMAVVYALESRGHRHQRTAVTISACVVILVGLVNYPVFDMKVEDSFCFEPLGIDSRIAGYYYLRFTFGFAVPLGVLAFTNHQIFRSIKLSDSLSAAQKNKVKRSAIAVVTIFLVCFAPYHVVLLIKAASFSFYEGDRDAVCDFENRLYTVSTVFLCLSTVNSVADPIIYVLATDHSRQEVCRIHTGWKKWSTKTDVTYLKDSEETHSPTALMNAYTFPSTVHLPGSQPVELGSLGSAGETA
Sequence of human CB2 (P34972 whole entry): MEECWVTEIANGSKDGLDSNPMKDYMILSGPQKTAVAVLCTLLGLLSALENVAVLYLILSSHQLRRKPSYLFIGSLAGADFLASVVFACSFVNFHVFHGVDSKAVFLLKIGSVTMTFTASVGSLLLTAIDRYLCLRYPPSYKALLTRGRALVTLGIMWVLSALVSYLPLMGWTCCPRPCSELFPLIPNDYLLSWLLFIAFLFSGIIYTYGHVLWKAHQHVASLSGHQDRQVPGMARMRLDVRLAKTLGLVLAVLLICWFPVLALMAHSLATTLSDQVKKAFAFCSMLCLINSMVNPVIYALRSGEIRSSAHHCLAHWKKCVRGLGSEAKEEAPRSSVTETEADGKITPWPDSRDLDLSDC

As to `CCCCCCCCCCCCCCCCCC(=O)NCC(=O)O` [NSGly, N‐stereoylglycine], at Mouse GPR132, the “pEC50, Mouse GPR132, β‐arrestin” value is on record as <5 (1). Moreover, at hGPR132a [1], the “pEC50, Human GPR132a, β‐arrestin” value is listed as 5.4 (1) and the “Emax, Human GPR132a, β‐arrestin” value is 23%. Besides, at hGPR132a [2], the “pEC50, Human GPR132a, Yeast” value is 5.1 ± 0.08 (3) and the “Emax, Human GPR132a, Yeast” value is listed as 80 ± 4%.
With `CCCc1nc2c(C)cc(-c3nc4ccccc4n3C)cc2n1Cc1ccc(-c2ccccc2C(=O)O)cc1` [telmisartan], at hGPR132a [3], the “Schild Hill slope nH” value is recorded as 1.9.
As to `CCCCCCCCCCCCCCCC(=O)NCC(=O)O` [NPGly, N‐palmitoylglycine], the “pEC50, R203A” value at hGPR132a R203A was “abolished responses”. Besides, at Mouse GPR132, the “pEC50, Mouse GPR132, β‐arrestin” value is <5 (2) and the “Emax, Mouse GPR132, β‐arrestin” value was 11%. Moreover, on Rat GPR132, the “pEC50, Rat GPR132, Yeast” value was 7.0 ± 0.12 (4) and the “Emax, Rat GPR132, Yeast” value was 53 ± 14%. In addition, on hGPR132a [1], the “pEC50, Human GPR132a, β‐arrestin” value is given as <5 (3) and the “Emax, Human GPR132a, β‐arrestin” value is 14%. Besides, the “pEC50, Human GPR132a, Yeast” value at hGPR132a [2] was 6.2 ± 0.16 (7).
In the case of `CCCCC/C=C\C/C=C\C/C=C\C/C=C\CCCC(=O)NCC(=O)O` [NAGly, N‐arachidonoylglycine], at Rat GPR132, the “pEC50, Rat GPR132, Yeast” value is 5.3 ± 0.09 (4) and the “Emax, Rat GPR132, Yeast” value amounted to 87 ± 12%. In the test with CB2, the “binding to CB2” value is reported as “does not bind”. Besides, at hGPR132a [2], the “pEC50, Human GPR132a, Yeast” value is listed as <4.5 (3) and the “Emax, Human GPR132a, Yeast” value was 38%. For the same compound, at human CB2, the “Emax, CB2, yeast” value is listed as 17±2% and the “pEC50, CB2, yeast” value is 5.6 ± 0.3.
Turning to `CCCCCCCC/C=C\CCCCCCCC(=O)N[C@@H](CO)C(=O)O` [NOSer, N‐oleoylserine], at hGPR132a [2], the “pEC50, Human GPR132a, Yeast” value was 5.8 ± 0.07 (4) and the “Emax, Human GPR132a, Yeast” value was found to be 21 ± 5%.
Usually EC50 stands for the midpoint of the concentration-response curve. The term Emax denotes the greatest response seen or fitted, relative to the assay's reference. For the compound `CCCCCCC(C)(C)c1ccc([C@@H]2C[C@H](O)CC[C@H]2CCCO)c(O)c1` [CP‐55,940], the EC50 at Rat GPR132 was greater than 3.16 µM. At hGPR132a [2], it took 3.16 µM to reach a half-maximal effect (EC50) and the “Emax, Human GPR132a, Yeast” value is “full agonists”. For the same compound, the Emax on hGPR132a [2] (read-out: Emax, Human GPR132a, Yeast) is 102 ± 3%. Moreover, at hGPR132a Y200A, the “pEC50, Y200A” value is given as “abolished”.
As to `CCCCC/C=C\C/C=C\CCCCCCCC(=O)NCC(=O)O` [NLGly, N‐linoleoylglycine], at hGPR132a R203A, the “pEC50, R203A” value was “abolished responses”. On Mouse GPR132, the “pEC50, Mouse GPR132, β‐arrestin” value is 5.3 (1) and the “Emax, Mouse GPR132, β‐arrestin” value is recorded as 40%. The “Ca2+ transient, peak response” value in the test on parental RBL cells was 0.040 ± 0.008 ratio units. Moreover, on Rat GPR132, the “pEC50, Rat GPR132, Yeast” value is recorded as 6.5 ± 0.36 (4) and the “Emax, Rat GPR132, Yeast” value was found to be 68 ± 7%. Further, at hGPR132a [4], the “Ca2+ transient, peak response” value is recorded as 0.138 ± 0.03 ratio units. Further, on hGPR132a [1], the “pEC50, Human GPR132a, β‐arrestin” value is given as 5.5 ± 0.23 (2); the “Emax, Human GPR132a, β‐arrestin” value was 39±4% and 38 ± 4%. In addition, on hGPR132a [2], the “pEC50, Human GPR132a, Yeast” value is reported as 5.8 ± 0.08 (3) and the “Emax, Human GPR132a, Yeast” value came to 84 ± 6%.
Turning to `CC/C=C\C/C=C\C/C=C\C/C=C\C/C=C\C/C=C\CCC(=O)NCC(=O)O` [NDGly, N‐docosahexanoylglycine], at hGPR132a [1], the “pEC50, Human GPR132a, β‐arrestin” value was <5 (2). On hGPR132a [2], the “pEC50, Human GPR132a, Yeast” value is <4.4 (4) and the “Emax, Human GPR132a, Yeast” value is on record as 33%.
In the case of `CCCCC/C=C\C/C=C\CCCCCCCC(=O)O` [Linoleic acid], the EC50 was greater than 10 µM at hGPR132a [1] and greater than 100 µM at hGPR132a [2]. Besides, at hGPR132a [2] (tested up to 100 µmol/L), the “agonist activity at hGPR132a in yeast” value is given as “no detectable agonist activity”.
For `CCCCC/C=C\C/C=C\CCCCCCCC(N)=O` [Linoleamide, linoleamide], the “pEC50, Mouse GPR132, β‐arrestin” value on Mouse GPR132 was <5 (1). Besides, on Rat GPR132, the “pEC50, Rat GPR132, Yeast” value was 5.9 ± 0.21 (2) and the “Emax, Rat GPR132, Yeast” value amounted to 37 ± 5%. Besides, at hGPR132a [1], the “pEC50, Human GPR132a, β‐arrestin” value was 5.5 (1) and the “Emax, Human GPR132a, β‐arrestin” value is on record as 22%. Also, on hGPR132a [2], the “pEC50, Human GPR132a, Yeast” value was 5.8 ± 0.01 (3) and the “Emax, Human GPR132a, Yeast” value stood at 79 ± 11%.
Take `CCCCC/C=C\C/C=C\C/C=C\C/C=C\CCCC(=O)N[C@@H](Cc1ccc(O)cc1)C(=O)O` [NATyr, N‐arachidonyltyrosine]: the “pEC50, Rat GPR132, Yeast” value at Rat GPR132 is on record as <4 (3).
`CCCCC/C=C\C=C\C(O)CCCCCCCC(=O)O` (stereo not shown) [9‐HODE, 9‐hydroxyoctadecadienoic acid]: at Mouse GPR132, the “pEC50, Mouse GPR132, β‐arrestin” value was 5.6 ± 0.23 (5) and the “Emax, Mouse GPR132, β‐arrestin” value came to 97 ± 6%. The “Ca2+ transient, peak response” value in the test with parental RBL cells is recorded as 0.023 ± 0.003 ratio units. Besides, at Rat GPR132, the “pEC50, Rat GPR132, Yeast” value is 6.2 ± 0.12 (5) and the “Emax, Rat GPR132, Yeast” value was found to be 100%. The “Ca2+ transient, peak response” value at hGPR132a [4] worked out at 0.122 ± 0.016 ratio units. For the same compound, at hGPR132a [2], the “pEC50, Human GPR132a, Yeast” value is given as 5.9 ± 0.14 (4).
With `CCCCCCCC/C=C\CCCCCCCC(=O)NCC(=O)O` [NOGly, N‐oleoylglycine], the “pEC50, R203A” value on hGPR132a R203A is “eliminated the activity”. At Mouse GPR132, the “pEC50, Mouse GPR132, β‐arrestin” value is 5.3 ± 0.05 (2) and the “Emax, Mouse GPR132, β‐arrestin” value worked out at 44 ± 10%. In addition, at hGPR132a [1], the “pEC50, Human GPR132a, β‐arrestin” value was 5.6 ± 0.18 (2) and the “Emax, Human GPR132a, β‐arrestin” value was 29 ± 15%. Besides, on hGPR132a [2], the “pEC50, Human GPR132a, Yeast” value was 5.1 ± 0.24 (3) and the “Emax, Human GPR132a, Yeast” value stood at 95 ± 6%.
